These results are taken from patent publication US10323013B2, “Inhibitors of the IRE-1/XBP-1 pathway and methods of using thereof” (H. LEE MOFFITT CANCER CENTER AND RESEARCH INSTITUTE, INC., priority 2013, dated 2019).

“Also recorded” adds a separate entry of the source.

Data set [1] is described as follows: Aqueous solubility (stated in words). It is filed as physicochemical.
Data set [2] can be described thus: Pharmacokinetics of B-I09 in mouse plasma. The format is in vivo. The conditions noted are these: 50 mg/kg intraperitoneally. Here is the method:
In vivo pharmacokinetics studies were carried out at Agilux Laboratories, Inc. (Worchester, Mass.) using male CD-1 mice (Charles River Laboratories, Wilmington, Mass.). B-I09 was administered intraperitoneally at 50 mg/kg as a solution in DMSO to a group of 3 male CD-1 mice. Compound blood was collected via tail snip into calibrated microvette tubes containing K2EDTA at 0.25, 0.5, 1, 2, 4, 8, and 24 h post dosing. Blood samples were stored on wet ice until processed to plasma by centrifugation within 1 hour of collection. All plasma samples were transferred to 96 well plates and stored at −80° C. until analyzed for B-I09 concentration via LC/MS/MS using a C18 RP-HPLC column (2.1×50 mm) and an acetonitrile:water (with 0.1% formic acid) mobile phase elution gradient. B-I09 was quantified by analysis with API 5500 TurbolonSpray positive ion MS detection. A non-compartmental model was applied to calculate pharmacokinetic parameters using WinNonlin 4.2 software.

The test system of the next data set is Eμ-TCL1 CLL cells. Nature of the data set: Cell proliferation XTT assay, Eμ-TCL1 CLL cells. As to conditions: 20 μM, 3 days. The format is cell-based, mouse. On the procedure:
(§1) Eμ-TCL1, MEC1, MEC2, WaC3, or primary human CLL cells were grown in 96-well cell culture plates overnight and then treated with fresh phenol red-free culture medium containing STF-083010 (50 μM), A-I06 (50 μM), A-I07 (50 μM) or fludarabine (30 μM). […] Briefly, 50 μl XTT labeling reagent was combined with 100 μl electron-coupling reagent, and the mixture was applied to each well of the 96-well plates. The test was based on cleavage of the yellow tetrazolium salt XTT by mitochondrial dehydrogenases of the metabolic active cells to form the orange formazan compound, which can be spectrophotometrically quantified at 492 nm using a BioTek microplate reader.

Another data set has as its system phosphorylation of BTK. Nature of the data set: BCR activation and phosphorylation assay. The format is cell-based. As to conditions: wild-type and Eμ-TCL1 B cells, B-I09 20 μM, F(ab′)2 anti-mouse IgM. Here is the method:
XBP-1^WT/Eμ-TCL1 B cells, XBP-1^KO/Eμ-TCL1 B cells, B-I09-treated wild-type B cells or B-I09-treated Eμ-TCL1 B cells were suspended in RPMI serum-free media supplemented with 25 mM Hepes, stimulated with F(ab′)^2 fragments of the goat anti-mouse IgM antibody (20 μg/ml) (SouthemBiotech) for 2 min, and lysed immediately by adding ice-cold lysis buffer (50 mM Tris-HCl, pH 8.0; 150 mM NaCl; 1% Triton X-100; 1 mM EDTA) supplemented with protease inhibitor cocktail (Roche), 4 mM sodium pyrophosphate, 2 mM sodium vanadate and 10 mM sodium fluoride. The lysates were analyzed by SDS-PAGE. Phosphorylated proteins of interest were detected by immunoblots using phospho-specific antibodies.

A further data set concerns CLL-bearing Eμ-TCL1 mice. The format is in vivo.
For the next data set, the system named is primary human CLL cells. As to the kind of experiment: Cell proliferation XTT assay, primary human CLL cells. The format is cell-based. The conditions noted are these: 20 μM, 3 days. Here is the method: as §1
Another data set deals with XBP-1s expression. As to the kind of experiment: Inhibition of XBP-1s expression in LPS-stimulated mouse B cells (immunoblots). It is filed as cell-based. The conditions noted are these: LPS 48 h, then inhibitor 20 μM for 24 h (Example 3 prints 20 mM).
Data set [3] is described as follows: Degradation (chemical stability) studies by HPLC/LCMS. The format is physicochemical. Here is the method:
The degradation of analog 24 was plotted as a function of time upon exposure to FRET-suppression assay buffer at rt. Aliquots were partitioned with MeOH and injected onto LCMS (UV monitored at 320 nm) and peaks integrated relative to internal standard.
A 20 mM stock solution of B-I09 in DMSO was diluted to 0.5 mM in FRET assay buffer (20 mM HEPES, pH 7.5, 50 mM KOAc, 0.5 mM MgCl2, 3 mM DTT, 0.4% PEG) or cell culture media (RPMI supplemented with 10% fetal bovine serum). The FRET assay buffer and cell culture media solutions were incubated at room temperature and 37° C., respectively. At various time points, a 50 μL aliquot of each solution was added to 50 μL of methanol and the mixture analyzed by analytical reverse-phase HPLC (C18 4 mm×150 mm column, 1 mL/min flow rate) with acetonitrile/water (0.1% formic acid) as eluent. Absorbance was read at 320 nm and the degradation product (aldehyde) was identified by LCMS and co-injection with pure synthetic sample. Degradation studies were carried out in duplicate and data points reported as the mean of two values.

The subject of another data set is XBP-1 mRNA splicing. Nature of the data set: XBP-1 mRNA splicing by RT-PCR. The format is cell-based. The conditions noted are these: human WaC3 CLL cells, 24 h.
The subject of data set [4] is XBP-1s expression in Mino cells. As to the kind of experiment: Inhibition of XBP-1s expression in Mino cells (immunoblots and densitometry). The conditions noted are these: various doses, 24 h. The format is cell-based, human. On the technique in general: Immunoblotting shows a protein as a band on a membrane.
Experimental: (§2) Protein concentrations were determined by BCA assays (Pierce). […] Proteins were transferred to nitrocellulose membranes, blocked in 5% non-fat milk (wt/vol in PBS), and immunoblotted with indicated primary antibodies and appropriate horseradish peroxidase-conjugated secondary antibodies. Immunoblots were developed using Western Lighting Chemiluminescence Reagent (Perkin-Elmer).
Data set [5] has as its system XBP-1s expression in Jeko cells. As to the kind of experiment: Inhibition of XBP-1s expression in Jeko cells (immunoblots and densitometry). The conditions noted are these: various doses, 24 h. The format is cell-based, human.
Experimental: as §2
The test system of a further data set is Mino and Jeko cells. As to the kind of experiment: PARP cleavage by immunoblot in Mino and Jeko cells. As to conditions: 50 mM (so in the source), 72 h.
The subject of another data set is MEC2. As to the kind of experiment: cells. The conditions noted are these: Homo sapiens, MEC2, 48 h, read-out: GI50 (50% growth inhibition) concentration.
For another data set, the system named is WaC3. As to the kind of experiment: cells. As to conditions: Homo sapiens, 48 h, read-out: GI50 (50% growth inhibition) concentration.
The next data set deals with MEC1. Nature of the data set: cells. The conditions noted are these: Homo sapiens, MEC1, 48 h, read-out: GI50 (50% growth inhibition) concentration.

Experimental for CLL-bearing Eμ-TCL1 mice: (B) CLL-bearing Eμ-TCL1 mice were intraperitoneally injected with DMSO (n=3) or B-I09 (50 mg/kg in DMSO, n=8) daily for the first 5 days weekly for three weeks. Blood was collected to measure lymphocyte numbers using a HemaTrue Hematology Analyzer (HESKA). Data were compared with lymphocyte counts prior to B-I09 injections, and plotted as mean±SEM. (C) Lymphocyte counts in the peripheral blood of B-I09-treated Eμ-TCL1 mice (n=8) were plotted as mean±SEM. […] (E) Splenocytes from DMSO- or B-I09-injected Eμ-TCL1 mice were stained with IgM-PE-Cy7, B220-FITC, CD5-APC, Annexin V-PE and 7-AAD. Gated IgM+/B220+/CD5+ splenic CLL cells were analyzed for Annexin V- and/or 7-AAD-positive populations. (F) Percentages of apoptotic cells in gated IgM^+/B220^+/CD5^+ CLL populations from spleens of DMSO-injected (n=3) or B-I09-injected (n=8) Eμ-TCL1 mice were plotted as mean±SEM. (G) Weight of DMSO-injected (n=3) or B-I09-injected (n=8) Eμ-TCL1 mice was plotted as mean±SD. (H) Paraffin-embedded sections of indicated organs from Eμ-TCL1 mice receiving three weeks of injections with DMSO or B-I09 were stained with hematoxylin and eosin.
Tumor-bearing Eμ-TCL1 mice in which CLL cells comprise the majority of the lymphocytes in the peripheral blood (FIG. 33) were selected. The mice were then treated with 50 mg/kg B-I09 on the first five days of each week for three weeks. […] Since CLL cells proliferate in secondary lymphoid organs and are protected from cell death through interactions with microenvironments, whether B-I09 has an effect on CLL cells residing in the spleen was evaluated.
Experimental for Mino and Jeko cells: Cells were lysed for the analysis of the indicated proteins by immunoblot.
as §2
Text for XBP-1 mRNA splicing: Total RNA was isolated using TRIzol reagent (Invitrogen). Complementary DNA was synthesized from RNA using Superscript II reverse transcriptase (Invitrogen).

Regarding `O=c1oc2c(C3OCCCO3)c(O)ccc2c2c1CNCC2` [Compound 28, 7-(1,3-dioxan-2-yl)-8-hydroxy-3,4-dihydro-1H-chromeno[3,4-c]pyridin-5(2H)-one], the “solubility (in words)” value in [1] is “water soluble”. Moreover, in [2], the peak concentration was approximately 39 µM and the “time of peak concentration after administration” value worked out at 15 min. Also, the half-life in data set [2] (male, CD-1, ip) is approximately 1.5 h. In addition, the “inhibition of mouse CLL cell growth (in words)” value in the data set with Eμ-TCL1 CLL cells is “more effective than B-H09 and 4μ8C”. Besides, the “BCR signaling, phosphorylation of BTK (in words)” value with phosphorylation of BTK was “reduced phosphorylation of BTK”. For the same compound, the “apoptotic CD5+ CLL cells in the spleens (in words)” value in the data set with CLL-bearing Eμ-TCL1 mice (50 mg/kg for three weeks vs DMSO) is reported as “significant increase”. Also, the “CLL in the peripheral blood (in words)” value in the data set with CLL-bearing Eμ-TCL1 mice (50 mg/kg i.p., first five days of each week for three weeks) was “Clear CLL regression”. Further, the “numbers of lymphocytes in the peripheral blood (in words)” value in the data set with CLL-bearing Eμ-TCL1 mice (after three weeks, normal range 500-5000 cells/μL) is “dropped close to the normal range”. Besides, in the data set with CLL-bearing Eμ-TCL1 mice (immunoblots, B-I09-injected mice), the “expression of XBP-1s in CLL cells from peripheral blood (in words)” value was “inhibits the expression of XBP-1s”. Besides, in the data set on CLL-bearing Eμ-TCL1 mice (three weeks of treatment), the “adverse effects or toxicity to mice (in words)” value is recorded as “no apparent adverse effects or toxicity”; the “weight loss and histological changes to vital organs (liver, lungs, kidney, heart)” value is recorded as “no significant weight loss or apparent histological changes”. Also, the “inhibition of growth of CLL cells from human patients (in words)” value in the data set on primary human CLL cells is “most potent inhibitor”. For the same compound, the “inhibition of XBP-1s expression (in words)” value in the data set with XBP-1s expression is on record as “highly effective”. Further, the “fraction intact in cell culture media” value in data set [3] (37° C., 24 h) is “greater than 50%”. In addition, the half-life at 0.5 mM in [3] (cell culture media, 37° C., read-out: t1/2 in cell culture media (converted)) was approximately 30 h. For the same compound, the “stability of 1,3-dioxane group in FRET-suppression assay buffer (in words)” value in data set [3] (room temperature, up to 48 h, listed as B-I09) was “remains completely intact; also recorded: stable”. For the same compound, the “inhibition of splicing of XBP-1 mRNA (in words)” value in the data set on XBP-1 mRNA splicing is recorded as “highly effective”.
As to `CC(=O)N1CCc2c(c(=O)oc3c(C=O)c(O)ccc23)C1` [Compound 29, 3-acetyl-8-hydroxy-5-oxo-2,3,4,5-tetrahydro-1H-chromeno[3,4-c]pyridine-7-carbaldehyde], the “IC50 for blocking XBP-1s expression (in words)” value in [4] and in data set [5] was “sub-micromolar range” in each case.
Turning to `CN1CCc2c(c(=O)oc3c(C=O)c(O)ccc23)C1` [Compound 30, 8-hydroxy-3-methyl-5-oxo-2,3,4,5-tetrahydro-1H-chromeno[3,4-c]pyridine-7-carbaldehyde], the “PARP cleavage (in words)” value in the data set on Mino and Jeko cells is on record as “induced PARP cleavage more strongly than either 21b or 5”.
As for `C=CC(=O)N1CCC[C@@H](n2nc(-c3ccc(Oc4ccccc4)cc3)c3c(N)ncnc32)C1` [ibrutinib], the GI50 in the data set on MEC2, with WaC3 and in the data set on MEC1 was 10 to 20 µM throughout.
